In patent US9303017B2, “2,5-disubstituted-pyridyl nicotinic ligands, and methods of use thereof” (Georgetown University, priority 2011, dated 2016):
pEC50, pIC50, pKi: −log10 of the molar value. Counter-ions that a name gives are not always drawn. Like-named read-outs stand apart in the source and are kept apart here.

What was measured:
[1] = molecular target: α7 nAChR (Rattus norvegicus (Rat), UniProt Q05941); format: binding; details: Table 3 (Example 4)
Procedure: (§1) In Vitro Binding Affinities for nAChR Subtypes. […] To determine selectivities of these compounds in binding assays among the three predominant nAChR subtypes, α3β4, α4β2 and α7, the ratios of Ki values (α3β4/α4β2 and α7/α4β2) were determined.
(§2) Cell Lines and Cell Culture. The cell lines expressing defined rat nAChR subtypes were established previously by stably transfecting HEK 293 cells with rat nAChR subunit genes. The cell line expressing human α4β2 nAChRs, YXα4β2H1, was established recently. These cell lines were maintained in minimum essential medium (MEM) supplemented with 10% fetal bovine serum, 100 units/mL penicillin G, […] and selective antibiotics at 37° C. with 5% CO2 in a humidified incubator. Fetal bovine serum was provided by Gemini Bio-Products (Woodland, Calif.). Tissue culture medium and antibiotics were obtained from Invitrogen Corporation (Carlsbad, Calif.), unless otherwise stated.
(§3) Briefly, cultured cells at >80% confluence were removed from their flasks (80 cm^2) with a disposable cell scraper and placed in 10 mL of 50 mM Tris.HCl buffer (pH 7.4, 4° C.). The cell suspension was centrifuged at 10,000×g for 5 min and the pellet was collected. The cell pellet was then homogenized in 10 mL buffer with a polytron homogenizer and centrifuged at 36,000 g for 10 min at 4° C. The membrane pellet was resuspended in fresh buffer, and aliquots of the membrane preparation were used for binding assays. […] Bound and free ligands were separated by vacuum filtration through Whatman GF/C filters treated with 0.5% polyethylenimine. The filter-retained radioactivity was measured by liquid scintillation counting. Specific binding was defined as the difference between total binding and nonspecific binding. Data from competition binding assays were analyzed using Prism 5 (GraphPad Software, San Diego, Calif.).
(§4) Pharmacological Properties. We measured the in vitro binding affinities of the ligands for defined receptor subtypes (α2β2, α2β4, α3β2, α3β4, α4β2, α4β4, α6β2, α6β4, and α7) expressed in stably transfected cell lines. […] Rat forebrain homogenates were included to allow comparison between the heterologous and native α4β2 and α7 nAChRs. See Table 1 for binding affinity values (Ki) of the ligands at the three major nAChR subtypes (α3β4. α4β2 and α7).

[2] = molecular target: human α4β2 nAChRs (Homo sapiens (Human), UniProt P17787+P43681); test: 86Rb+ efflux assay (activation and desensitization), α4β2; format: cell-based; details: for pEC50: agonist activity; for Emax: read-out: Emax α4β2 nAChRs; for pIC50: desensitization
Procedure: (§5) In Vitro Effects on nAChR Function. […] Their agonist activities were assessed by measuring stimulated ^86Rb^+ efflux from stably transfected cells, either expressing human α4β2 nAChRs or rat α3β4 receptors.
as §2
(§6) ^86Rb^+ Efflux Assay. Functional properties of compounds at nAChRs expressed in the transfected cells were measured using ^86Rb^+ efflux assays as described previously. In brief, cells expressing human α4β2 or rat α3β4 nAChRs were plated into 24-well plates coated with poly-D-lysine. The plated cells were grown at 37° C. for 18 to 24 hour to reach 85-95% confluence. The cells were then incubated in growth medium (0.5 mL/well) containing ^86Rb^+ (2 μCi/mL) for 4 hour at 37° C. The loading mixture was then aspirated, and the cells were washed four times with 1 mL buffer (15 mM HEPES, 140 mM NaCl, 2 mM KCl, 1 mM MgSO4, 1.8 mM CaCl2, 11 mM Glucose, pH 7.4). One mL of buffer with or without compounds to be tested was then added to each well. After incubation for 2 min, the assay buffer was collected for measurements of ^86Rb^+ released from the cells. Cells were then lysed by adding 1 mL of 100 mM NaOH to each well, and the lysate was collected for determination of the amount of ^86Rb^+ that was in the cells at the end of the efflux assay. Radioactivity of assay samples and lysates was measured by liquid scintillation counting. Total loading (cpm) was calculated as the sum of the assay sample and the lysate of each well. The amount of ^86Rb^+ efflux was expressed as a percentage of ^86Rb^+ loaded. […] For obtaining EC50 and Emax values, stimulation curves were constructed in which 8 different concentrations of a ligand were included in the assay. […] EC50, Emax and IC50(10′) values were determined by nonlinear least-squares regression analyses (GraphPad, San Diego, Calif.).
(§7) The functional properties of the ligands were determined by ^86Rb^+ efflux assays in cells expressing α3β4 and α4β2 nAChR subtypes. The functional activity of each ligand was measured for its agonism, antagonism and desensitization ability. Agonist activity for each of the ligands was tested at eight different concentrations. […] The full concentration-effect curves generated potency (EC50) and efficacy (Emax) of each ligand. […] We tested each ligand for antagonist activity at eight concentrations. The potency (IC50(0′)) of each ligand as an antagonist was derived from the full concentration-effect curves.

[3] = molecular target: α4β2 nAChR (Rattus norvegicus (Rat), UniProt P09483+P12390); test: biochemical; format: binding; details: for Ki Ratio α3β4/α4β2: selectivity for α4β2 over α3β4; for Ki Ratio α7/α4β2: selectivity for α4β2 over α7
Procedure: as §1, §2, §3, §4

[4] = molecular target: α3β4 nAChR (Rattus norvegicus (Rat), UniProt P04757+P12392); test: [3H]-epibatidine competition binding, α3β4
Procedure: as §1, §2, §3, §4

[5] = molecular target: rat α3β4 nAChRs (Rattus norvegicus (Rat), UniProt P04757+P12392); test: 86Rb+ efflux assay (activation and desensitization), α3β4; format: cell-based; details: for Emax: read-out: Emax α3β4 nAChRs
Procedure: as §5, §2, §6, §7

[6] = system: ferrets; test: Emesis studies in ferrets; format: in vivo, ferret (Mustela putorius furo); details: 0.5 mg/kg s.c.
Procedure: Emetic Effects of Compound (S)-15 (YL-1-127) in Ferrets. Effects of (S)-15 in causing nausea and emesis were assessed in a ferret model. For comparison, varenicline was also tested. […] In general, all animals remained alert and active with periods of inactivity that mirrored their baseline behavior within the 1 hr observation period.
In one animal, this behavior was accompanied by oral stereotypy (licking), whereas in two animals it was interspersed by episodes of backward walking. On the average, these behaviors manifested around ˜2.20 min. […] Occasionally, when animals tried to ambulate they would immediately cease their movement after each attempt. This would be followed by a momentary increase in breathing, giving the impression that the animal was in distress.
General Procedures for Emesis Studies in Ferrets. Studies were undertaken in male ferrets (Mustela putorius furo) weighing 0.9-1.5 kg (Marshall Farms, N.Y.). They were housed in controlled conditions of room temperature (22° C.) and light (12:12 h light-dark cycle) with free access to food and water. Prior to each experiment, food was withheld overnight, whereas water was provided ad libitum.
Emetic testing consisted of placing animals individually in a polycarbonate enclosure. Following a 30 min acclimation period, each animal randomly received a subcutaneus injection of varencline or compound (S)-15 (YL-1-127) in the subscapular region. A 60 min observation and video recording followed the drug administration. […] All drugs were dissolved in sterile saline.
Video analysis of the incidence of emesis, stereotypical behaviors (such as licking, mouth-clawing, backward walking, gagging, and burying of the head in cage) and GI side effects (diarrhea) was done off-line. Stereotypical behaviors are thought to be reflective of a subjective sensation of nausea. The emetic index of a drug was calculated as the […] of animals displaying emesis (one or more times in 60 min) divided by the total number of animals tested. An emetic episode was defined as the forceful oral expulsion of liquid or solid upper gastrointestinal contents that is temporally separated from another by at least 30 s.
The Nausea Index for the stereotypical behaviors was derived from the mean±SEM number of nausea behaviors observed among all animals in a given treatment group. Significance was determined at p<0.05.

[7] = ND = no significant stimulated efflux detected
[8] = agonist efficacy normalized to Emax of nicotine, ND = no significant stimulated efflux detected
[9] = 10 min pre-treatment, Table 3 (Example 4), read-out: IC50(10′) α4β2
[10] = 10 min pre-incubation before 100 μM nicotine, Table 2, read-out: IC50(10′) α4β2 nAChRs
[11] = Table 1, mean of 3 to 5 measurements
[12] = read-out: IC50(10′) α3β4 nAChRs

| SMILES | pKi [1] | pEC50 [2, 7] | Emax [2, 8] [%] | pIC50 [2, 9] | pIC50 [2, 10] | Ki Ratio α3β4/α4β2 [3] | Ki Ratio α7/α4β2 [3] | pKi [4, 11] | pKi ([4]; Table 3 (Example 4)) | pIC50 [5, 12] | Emax [5] [%] | further results |
| --- | --- | --- | --- | --- | --- | --- | --- | --- | --- | --- | --- | --- |
| Cc1ncc(C#CC2CC2)cc1OC[C@@H]1CCN1 [(S)-27, (S)-3-(azetidin-2-ylmethoxy)-5-(cyclopropylethynyl)-2-methylpyridine] | 3.82 | 6.80 | < 20 | 7.96 | 6.96 | 16,000 | 16,000 | 3.82 | 3.82 | < 5.00 |  | pKi ([3]; Table 1, mean of 3 to 5 measurements, read-out: Ki α4β2): 8.02; pIC50 ([5]; read-out: IC50(10′) α3β4): 4.44 |
| CN1CCC[C@H]1c1cccnc1 [(—)-Nicotine, (−)-nicotine, reference compound] |  |  |  |  |  |  |  |  |  |  |  | Emax [2]: 100%; Emax α3β4 nAChRs [5]: full agonist activities |
| OCCCCC#Cc1cncc(OC[C@@H]2CCN2)c1 [Sazetidine-A, reference compound] | 5.80 | 7.62 | 40 | 8.12 | 7.92 | 31,000 | 11,000 |  | 5.72 | < 5.00 | 17 | pKi ([3]; Table 3 (Example 4), read-out: Ki α4β2): 10.21; pEC50 ([5]; agonist activity, ND = no significant stimulated efflux detected): 4.62; pIC50 ([5]; desensitization, 10 min pre-treatment, Table 3 (Example 4), read-out: IC50(10′) α3β4): < 5.00 |
| c1cnc2cc3c(cc2n1)[C@@H]1CNC[C@H]3C1 [Varenicline] |  |  |  |  |  |  |  |  |  |  | 90 | gagging (retching), mean # of episodes [6]: 2.80 ± 1.63; time post-injection at which locomotor behavior was noticeably reduced [6]: ~1.05 min; emetic episodes ([6]; 1 hr observation): no emetic episodes were observed; time at which nausea behaviors manifested ([6]; average): ~2.20 min; animals with drug induced nausea (gagging) ([6]; animals affected/tested): 4/5 |
| CCCCC#Cc1cnc(C(F)(F)F)c(OC[C@@H]2CCN2)c1 [compound 32, (S)-3-(azetidin-2-ylmethoxy)-5-(hex-1-ynyl)-2-(trifluoromethyl)pyridine hydrochloride] |  |  |  |  |  |  |  | < 4.00 |  |  |  | pKi [3]: < 4.00 |
